PubChem BioAssay AID330 (DTP/NCI, 2004)
Values joined by “and” are separate entries in the source; they are usually repeats but may differ in a detail not shown here. Equal entries are not always repeated. Inconclusive results and toxic doses are left out. How the source made its calls: active means survival T/C of 150% or more; inactive means T/C below 125% in these data.

Test system: P388 leukemia ip, CD2F1 mice, survival T/C
Test: NCI In Vivo Anticancer Drug Screen. Data for tumor model P388 Leukemia (intraperitoneal) in CD2F1 (CDF1) mice
Conditions: endpoint: median survival time, higher = longer survival
Method in brief: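 Mice carrying the transplanted tumor received test compound or vehicle. Survival was recorded in each group, and the value is the treated-group measurement divided by that of the vehicle-treated control group.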

[1] = dose: 50.0 mg/kg/injection, schedule: Q01DX009 (ip), vehicle: saline with Tween-80
[2] = dose: 100.0 mg/kg/injection, schedule: Q01DX009 (ip), vehicle: saline with Tween-80
[3] = dose: 200.0 mg/kg/injection, schedule: Q01DX009 (ip), vehicle: saline with Tween-80
[4] = dose: 50.0 mg/kg/injection, schedule: Q01DX005 (ip), vehicle: Klucel (hydroxypropylcellulose) (HPC)
[5] = dose: 100.0 mg/kg/injection, schedule: Q01DX005 (ip), vehicle: Klucel (hydroxypropylcellulose) (HPC)
[6] = dose: 200.0 mg/kg/injection, schedule: Q01DX005 (ip), vehicle: Klucel (hydroxypropylcellulose) (HPC)
[7] = dose: 12.5 mg/kg/injection, schedule: Q01DX005 (ip), vehicle: saline with Tween-80
[8] = dose: 25.0 mg/kg/injection, schedule: Q01DX005 (ip), vehicle: saline with Tween-80
[9] = dose: 50.0 mg/kg/injection, schedule: Q01DX005 (ip), vehicle: saline with Tween-80
[10] = dose: 100.0 mg/kg/injection, schedule: Q01DX005 (ip), vehicle: saline with Tween-80
[11] = dose: 200.0 mg/kg/injection, schedule: Q01DX005 (ip), vehicle: saline with Tween-80
[12] = dose: 100.0 mg/kg/injection, schedule: Q01DX001 (ip), vehicle: saline with Tween-80
[13] = dose: 200.0 mg/kg/injection, schedule: Q01DX001 (ip), vehicle: saline with Tween-80
[14] = dose: 400.0 mg/kg/injection, schedule: Q01DX001 (ip), vehicle: saline with Tween-80
[15] = dose: 100.0 mg/kg/injection, schedule: Q04DX002 (ip), vehicle: saline with Tween-80
[16] = dose: 200.0 mg/kg/injection, schedule: Q04DX002 (ip), vehicle: saline with Tween-80
[17] = dose: 200.0 mg/kg/injection, schedule: Q04DX003 (ip), vehicle: saline with Tween-80
[18] = dose: 12.5 mg/kg/injection, schedule: Q01DX009 (ip), vehicle: saline with Tween-80
[19] = dose: 100.0 mg/kg/injection, schedule: Q04DX002 (ip), vehicle: Klucel (hydroxypropylcellulose) (HPC)
[20] = dose: 200.0 mg/kg/injection, schedule: Q04DX002 (ip), vehicle: Klucel (hydroxypropylcellulose) (HPC)

Measured: T/C

Clc1ccc2c(NCCN3CCCCCC3)nc(C(Cl)(Cl)Cl)nc2c1
inactive: [1] 100 % of control | [2] 104 % of control | [3] 100 % of control

CNC(=S)N/N=C(C)\C=N/Nc1cccc(Cl)c1
inactive: dose: 100.0 mg/kg/injection, schedule: Q04DX003 (ip), vehicle: saline 92 % of control | dose: 200.0 mg/kg/injection, schedule: Q04DX003 (ip), vehicle: saline 93 % of control | dose: 400.0 mg/kg/injection, schedule: Q04DX003 (ip), vehicle: saline 100 % of control

Cc1c(CCNC=O)ccc2c1[nH]c1ccccc12
inactive: [4] 95 % of control | [5] 96 % of control | [6] 100 % of control

O=C([OH2+])C[N]1C(=O)C[NH][Ga]1[Cl].O=C([OH2+])C[N]1C(=O)C[NH][Ga]1[Cl]
inactive: [4] 108 % of control | [5] 100 % of control | [6] 98 % of control

CC1(C)SC(C)(C)N2C(=O)[C@H]3N(C(=O)[C@@H]21)C(C)(C)SC3(C)C
inactive: [7] 100 % of control | [8] 94 % of control | [9] 99 % of control and 91 % of control | [10] 94 % of control | [11] 97 % of control

FC(F)(F)C(F)(F)C(F)(F)c1nnc(-c2ccc(Cl)cc2Cl)o1
inactive: [12] 95 % of control | [13] 100 % of control | [14] 96 % of control

Cc1cc2c(cc1C)C(=O)c1c(C)ccc(C)c1C2=O
inactive: [7] 99 % of control | [8] 99 % of control | [9] 86 % of control and 89 % of control

COc1cc2c(cc1OC)-c1ccccc1COC2=O
inactive: [15] 102 % of control | [16] 93 % of control | dose: 400.0 mg/kg/injection, schedule: Q04DX002 (ip), vehicle: saline with Tween-80 92 % of control

CC1N=NNN1C (centres undefined)
inactive: [9] 109 % of control | [10] 109 % of control | [11] 100 % of control

COc1cc(/C=N\N=C\c2cc(OC)c(OC)c(OC)c2)cc(OC)c1OC
inactive: [17] 100 % of control

CC(C)N1C(=O)C(C#N)=C(c2ccccc2)SC1c1ccccc1 (centres undefined)
inactive: dose: 3.13 mg/kg/injection, schedule: Q01DX009 (ip), vehicle: saline with Tween-80 104 % of control | dose: 6.25 mg/kg/injection, schedule: Q01DX009 (ip), vehicle: saline with Tween-80 101 % of control | [18] 106 % of control | [1] 94 % of control | [2] 99 % of control

CNc1cc(NC)c2c(c1N)C(=O)c1ccccc1C2=O
inactive: dose: 50.0 mg/kg/injection, schedule: Q04DX002 (ip), vehicle: Klucel (hydroxypropylcellulose) (HPC) 103 % of control | [19] 100 % of control | [20] 101 % of control

CN1C(=O)n2c(nc3ccccc32)C(N2CCOCC2)(N2CCOCC2)C1=O
inactive: [12] 103 % of control | [13] 96 % of control | [14] 89 % of control

COc1cc(NCCN)c2ncsc2c1
inactive: dose: 50.0 mg/kg/injection, schedule: Q01DX005 (ip), vehicle: saline 100 % of control | dose: 100.0 mg/kg/injection, schedule: Q01DX005 (ip), vehicle: saline 102 % of control

S=C(NNc1nnc(-c2ccccc2)c(-c2ccccc2)n1)Nc1ccc(Br)cc1
inactive: [7] 97 % of control | [8] 90 % of control | [9] 97 % of control | [11] 93 % of control

OC(Cc1nc2ccccc2s1)(C(F)(F)F)C(F)(F)F
inactive: dose: 100.0 mg/kg/injection, schedule: Q04DX003 (ip), vehicle: saline with Tween-80 100 % of control | [17] 95 % of control | dose: 400.0 mg/kg/injection, schedule: Q04DX003 (ip), vehicle: saline with Tween-80 95 % of control

c1ccc2c3cc(cc2c1)OCCOCCOCCOc1ccc2ccccc2c1-c1c(ccc2ccccc12)OCCOCCOc1ccc2ccccc2c1-3
inactive: [12] 97 % of control | [13] 94 % of control

O=C1OCCc2c1[nH]c1ccccc21
inactive: [15] 100 % of control | [16] 100 % of control

O=C(C[n+]1ccccc1Br)c1cccc([N+](=O)[O-])c1
inactive: dose: 6.25 mg/kg/injection, schedule: Q01DX009 (ip), vehicle: saline 103 % of control | dose: 12.5 mg/kg/injection, schedule: Q01DX009 (ip), vehicle: saline 107 % of control | dose: 25.0 mg/kg/injection, schedule: Q01DX009 (ip), vehicle: saline 99 % of control | dose: 50.0 mg/kg/injection, schedule: Q01DX009 (ip), vehicle: saline 103 % of control

CC1=C(C#N)C(=O)N(C)C(=O)C1(Cl)Cl
inactive: [19] 98 % of control | [20] 98 % of control

CC1([N+](=O)[O-])C(=O)C2(N3CCOCC3)CCCC2C1c1ccccc1 (centres undefined)
inactive: dose: 60.0 mg/kg/injection, schedule: Q01DX005 (ip), vehicle: Klucel (hydroxypropylcellulose) (HPC) 99 % of control | dose: 120.0 mg/kg/injection, schedule: Q01DX005 (ip), vehicle: Klucel (hydroxypropylcellulose) (HPC) 96 % of control | dose: 240.0 mg/kg/injection, schedule: Q01DX005 (ip), vehicle: Klucel (hydroxypropylcellulose) (HPC) 90 % of control

CCN(CC)Cc1cc(C)c(O)c(N=Nc2ccc3ccc4cccc5ccc2c3c45)c1C
inactive: [18] 94 % of control | dose: 25.0 mg/kg/injection, schedule: Q01DX009 (ip), vehicle: saline with Tween-80 87 % of control | [1] 99 % of control and 122 % of control and 90 % of control | [2] 105 % of control and 118 % of control and 94 % of control | [3] 100 % of control and 105 % of control | dose: 400.0 mg/kg/injection, schedule: Q01DX009 (ip), vehicle: saline with Tween-80 107 % of control

COc1ccc(CC(=O)O)cc1OC (tested in a mixture with another compound)
inactive: dose: 100.0 mg/kg/injection, schedule: Q01DX009 (ip), vehicle: saline sonified 100 % of control | dose: 200.0 mg/kg/injection, schedule: Q01DX009 (ip), vehicle: saline sonified 100 % of control | dose: 400.0 mg/kg/injection, schedule: Q01DX009 (ip), vehicle: saline sonified 100 % of control

CCOC(=O)c1c(NCCO)c(-c2ccccc2)c(=O)n2c1[nH]c1ccccc12
inactive: [12] 100 % of control | [13] 99 % of control | [14] 87 % of control

CC1=C(/C=C/C(C)=C/C=C/C(C)=C/C=C/C=C(C)/C=C/C=C(C)/C=C/C2=C(C)C(=O)CCC2(C)C)C(C)(C)CCC1=O
inactive: dose: 60.0 mg/kg/injection, schedule: Q01DX005 (ip), vehicle: saline with Tween-80 98 % of control | dose: 120.0 mg/kg/injection, schedule: Q01DX005 (ip), vehicle: saline with Tween-80 88 % of control | dose: 240.0 mg/kg/injection, schedule: Q01DX005 (ip), vehicle: saline with Tween-80 91 % of control

CC(C)NCC1CCc2cc(CO)c([N+](=O)[O-])cc2N1 (centres undefined)
inactive: [4] 105 % of control | [5] 107 % of control | [6] 106 % of control

COc1cccc(/C=C/S(=O)(=O)Cc2ccccc2)c1OC
inactive: [9] 93 % of control | [10] 100 % of control | [11] 91 % of control
